According to patent US20070093520A1, “Method of treatment of diarrhea-predominant irritable bowel syndrome in a subject” (priority 2005, published 2007):

System: diarrhea-predominant IBS subjects
Test: 3007 Study: open-label 52-week safety study, adverse events and withdrawals
Conditions: Study 3007; for Number of subjects who died / Primary reason for withdrawal: Adverse event and lack of efficacy / Primary reason for withdrawal: Baseline complaint/adverse event / Primary reason for withdrawal: Lack of efficacy: all enrolled

Cc1nccn1C[C@H]1CCc2c(c3cccc4c3n2CCC4)C1=O [cilansetron, (R)-(−)-4,5,6,8,9,10-hexahydro-10-[(2-methyl-1H-imidazol-1-yl)methyl]-11H-pyrido-[3,2,1-jk]-carbazol-11-one]
SAE: Hepatitis NOS (C/C): 1 (<1%) n (%)
SAE: Hepatobiliary Disorders (C/C): 2 (<1%) n (%)
SAE: Immune System Disorders (C/C): 0 n (%)
SAE: Infections and Infestations (C/C): 1 (<1%) n (%)
SAE: Injury, Poisoning and Procedural Complications (C/C): 2 (<1%) n (%)
SAE: Irritable Bowel Syndrome Aggravated (C/C): 1 (<1%) n (%)
SAE: Leiomyoma NOS (C/C): 1 (<1%) n (%)
SAE: Loss of Consciousness (C/C): 1 (<1%) n (%)
SAE: Myocardial Infarction (C/C): 1 (<1%) n (%)
SAE: Neoplasms Benign, Malignant and Unspecified (Incl Cysts and Polyps) (C/C): 3 (1%) n (%)
SAE: Nervous System Disorders (C/C): 2 (<1%) n (%)
SAE: Non-Accidental Overdose (C/C): 1 (<1%) n (%)
SAE: Ovarian Cancer NOS* (C/C): 1 (<1%) n (%)
SAE: Ovarian Cystadenofibroma* (C/C): 0 n (%)
SAE: Pregnancy NOS* (C/C): 1 (<1%) n (%)
SAE: Pregnancy, Puerperium and Perinatal Conditions (C/C): 1 (<1%) n (%)
SAE: Psychiatric Disorders (C/C): 0 n (%)
SAE: Psychotic Disorder NOS (C/C): 0 n (%)
SAE: Renal and Urinary Disorders (C/C): 1 (<1%) n (%)
SAE: Reproductive System and Breast Disorders (C/C): 2 (<1%) n (%)
SAE: Respiratory, Thoracic and Mediastinal Disorders (C/C): 0 n (%)
SAE: Sinusitis Acute NOS (C/C): 0 n (%)
SAE: Status Epilepticus (C/C): 1 (<1%) n (%)
SAE: Suicidal Ideation (C/C): 0 n (%)
SAE: Supraventricular Tachycardia (C/C): 0 n (%)
SAE: Urinary Tract Infection NOS (C/C): 0 n (%)
SAE: Uterine Polyp NOS* (C/C): 1 (<1%) n (%)
SAE: Vaginal Cyst* (C/C): 1 (<1%) n (%)
TEAEs that led to permanent discontinuation of study medication (C/C): 13%
Total Number of Subjects with at Least One Serious Adverse Event (C/C): 19 (7%) n (%)
subjects with at least one TEAE (C/C): 86%
subjects with at least one treatment-emergent SAE (C/C): 7%
withdrawal for AE (C/C): 13%
withdrawal for lack of efficacy (C/C): 17%
Number of deaths (C/C (N = 257)): 0 n (%)
Number of subjects who permanently discontinued study medication due to a TEAE (as reported on the AE CRF) (C/C (N = 257)): 33 (13) n (%)
Number of subjects with at least one AE of special interest (C/C (N = 257)): 186 (72) n (%)
Number of subjects with at least one SAE (C/C (N = 257)): 19 (7) n (%)
Number of subjects with at least one TEAE (C/C (N = 257)): 220 (86) n (%)
Number of subjects with at least one TEAE leading to dose reduction (C/C (N = 257)): 7 (3) n (%)
Number of subjects with at least one related TEAE (C/C (N = 257)): 151 (59) n (%)
Number of subjects with at least one severe TEAE (C/C (N = 257)): 50 (19) n (%)
Number of subjects who died (C/C): 0 n (%)
Primary reason for withdrawal: Adverse event and lack of efficacy (C/C): 23 (9) n (%)
Primary reason for withdrawal: Baseline complaint/adverse event (C/C): 10 (4) n (%)
Primary reason for withdrawal: Lack of efficacy (C/C): 20 (8) n (%)
Number of deaths (Overall (N = 536)): 0 n (%)
Number of subjects who permanently discontinued study medication due to a TEAE (as reported on the AE CRF) (Overall (N = 536)): 83 (15) n (%)
Number of subjects with at least one AE of special interest (Overall (N = 536)): 371 (69) n (%)
Number of subjects with at least one SAE (Overall (N = 536)): 29 (5) n (%)
Number of subjects with at least one TEAE (Overall (N = 536)): 437 (82) n (%)
Number of subjects with at least one TEAE leading to dose reduction (Overall (N = 536)): 11 (2) n (%)
Number of subjects with at least one related TEAE (Overall (N = 536)): 301 (56) n (%)
Number of subjects with at least one severe TEAE (Overall (N = 536)): 94 (18) n (%)
Number of subjects who died (Overall): 0 n (%)
Primary reason for withdrawal: Adverse event and lack of efficacy (Overall): 57 (10) n (%)
Primary reason for withdrawal: Baseline complaint/adverse event (Overall): 24 (4) n (%)
Primary reason for withdrawal: Lack of efficacy (Overall): 45 (8) n (%)
SAE: Abdominal Pain Upper (P/C): 0 n (%)
SAE: Adenomyosis* (P/C): 0 n (%)
SAE: Angina Pectoris (P/C): 0 n (%)
SAE: Appendicitis (P/C): 0 n (%)
SAE: Asthma NOS (P/C): 1 (<1%) n (%)
SAE: Benign Ovarian Tumour* (P/C): 1 (<1%) n (%)
SAE: Bladder Prolapse (P/C): 1 (<1%) n (%)
SAE: Bone Neoplasm Malignant (P/C): 0 n (%)
SAE: Breast Cancer NOS* (P/C): 2 (1%) n (%)
SAE: Bronchopneumonia NOS (P/C): 1 (<1%) n (%)
SAE: Calculus Ureteric (P/C): 0 n (%)
SAE: Cardiac Disorders (P/C): 1 (<1%) n (%)
SAE: Chest Pain (P/C): 1 (<1%) n (%)
SAE: Cholelithiasis (P/C): 0 n (%)
SAE: Colitis Ischaemic (P/C): 1 (<1%) n (%)
SAE: Depression (P/C): 1 (<1%) n (%)
SAE: Endometriosis* (P/C): 0 n (%)
SAE: Fibroma NOS (P/C): 1 (<1%) n (%)
SAE: Food Allergy (P/C): 1 (<1%) n (%)
SAE: Gastritis NOS (P/C): 0 n (%)
SAE: Gastroenteritis NOS (P/C): 0 n (%)
SAE: Gastrointestinal Disorders (P/C): 1 (<1%) n (%)
SAE: General Disorders and Administration Site Conditions (P/C): 1 (<1%) n (%)
SAE: Hallucination NOS (P/C): 1 (<1%) n (%)
SAE: Hallucination, Auditory (P/C): 1 (<1%) n (%)
SAE: Heat Exhaustion (P/C): 0 n (%)
SAE: Hepatitis NOS (P/C): 0 n (%)
